Here are results for one compound from patent US20250186475A1, “METHODS OF TREATING MEDICAL CONDITIONS USING ISLATRAVIR OR A RELATED COMPOUND” (ROME Therapeutics, Inc., priority 2022, published 2025).

pIC50: −log10 of the molar value.

One assay relates to FaDu cells. As to the kind of experiment: Cancer cell viability assay with 3D cell colonies (CellTiter-Glo), FaDu. The assay is classed as cell-based. The following applies: Homo sapiens, FaDu, 168 h, 7 days. As for the experimental part: Ovarian cancer cell line SK-OV-3 cells were cultured in McCoy's 5a media containing 10% FBS. Ovarian cancer cell line OVCAR-8 cells were cultured in RPMI media containing 10% FBS. Additional cancer cell lines were cultured in the following media: • Ovarian cancer SW756 cells—L-15 (100% air)+10% FBS • Esophageal cancer TE-1 cells—RPMI-1640+10% FBS • Esophageal cancer KYSE-410 cells—RPMI-1640+5˜10% FBS • Esophageal cancer KYSE-70 cells—RPMI-1640+10% h.i.FBS. • Pharyngeal cancer FaDu cells—MEM+0.01 mM NEAA+10% FBS
Cell colony formation was tested using a 3D methylcellulose-based CellTiter-Glo (CTG) viability assay (Cat. No: G7573, Promega). Briefly, cells were inoculated into 96-well plates (at 1,500 cells per well) into a solution of 0.65% methylcellulose in growth media and incubated overnight at 37° C. in 5% CO2. The next day, serially diluted test compound (islatravir) or positive control (cisplatin, Cat. No. 6J015A89, Qilu Pharma) were added at the indicated concentrations, and the cells were incubated for 7 days. On day seven, 100 μL of CTG reagent was added, and the plates were incubated at room temperature for 20 min. Luminescence was read on an Envision Multi Label Reader according to manufacturer's instructions. IC50 values were determined using the following calculation: […]
For orientation: Cellular ATP, detected with luciferase, serves as a proxy for viable cell number.

Assay [1] concerns interferon-stimulated gene (ISG) expression. As to the kind of experiment: In vivo decitabine challenge model. The following applies: islatravir p.o. 0.6, 2.0, 6.0 mg/kg once daily with decitabine i.p. 5 mg/kg, Day 0 to Day 4. Further details: species or system C57BL/6 mice. As for the experimental part: Twenty 9-11 week old C57BL/6 mice were acclimated to the lab for at least 5 days. Islatravir was prepared in a 0.5% methylcellulose solution for p.o. administration. Decitabine (Sigma) was dissolved in sterile PBS (pH 7.4) and dosed within 30 minutes of preparation of the solution. Doses of both islatravir and decitabine were administered once a day, every day from Day 0 to Day 4. On Day 0, mice were split into four groups of five mice and given their first dose of decitabine (i.p., 5 mg/kg) and compound 23. Dosing groups were: [table] Decitabine and islatravir were administered daily from Day 0 to Day 4. All mice were euthanized 1 hour after the last dose administration on Day 4. Spleens, liver, and terminal colon were collected, along with plasma from each animal. The fold changes in interferon-stimulated gene (ISG) expression was calculated by first normalizing to GAPDH gene using the Delta CT method. The CT (gene of interest)—CT (reference gene) was calculated to generate a delta CT for all samples. The fold change was then calculated by taking the […](Delta CT(control)−Delta CT (experimental). The control in this example was the PBS control animal group. The Taqman duplex assay (Thermo Fisher 4331182 and 4448489) was used according to the manufacturer's instructions to determine levels of GAPDH v. IFIT2.

In assay [2] the test system is THP1-Dual™ KO-TREX1 cells. As to the kind of experiment: CellTiter-Glo cell viability in THP1 TREX1 KO cells. The assay is classed as cell-based. The following applies: Homo sapiens, 120 h, in the presence of 1 μM 5-aza-2′-deoxycytidine, five days, read-out: CellTiter-Glo inhibition IC50. On the procedure: THP1-Dual™ KO-TREX1 cells were purchased from Invivogen (cat #thpd-kotrex). The THP1-Dual™ KO-TREX1 cells were cultured in RPMI 1640, 10% heat-inactivated fetal bovine serum, 25 mM HEPES, 10 μg/mL Blasticidin, and 100 μg/mL Zeocin. THP1-Dual™ KO-TREX1 cells were treated with a dose titration of test compound in the presence of 1 μM 5-aza-2′-deoxycytidine (Sigma, cat #189825). Type 1 Interferon and cell viability were assessed after five days of treatment.
Stock solution of test compound was prepared in DMSO followed by a three-fold dilution in DMSO. Additional 50× dilution was prepared in cell culture media for each dilution. 10 μL of diluted test compound was then added to a 384-well plate.
THP1-Dual™ KO-TREX1 cells were treated with 1 μM 5-aza-2′-deoxycytidine. THP1-Dual™ KO-TREX1 cells (50 μL) were added to each well of the 384-well plate containing test compound titration at 10,000 cells/well. Cells were incubated at 37° C., 5% CO2 in a humidified incubator for five days. […] Luminescence was detected on a plate reader according to manufacturer's instructions. […]
The remaining cells were assessed for cell viability by adding 30 μl of CellTiter-Glo (Promega, G9683) solution to each well, and placed on a shaker for 10 minutes at room temperature. Luminescence was detected on a plate reader, according to manufacturer's instructions. […]

Assay [3] deals with T1, LINE1 reverse transcriptase (Homo sapiens, UniProt O00370).
T1 construct: expressed in transfected cells
T1 sequence (O00370 whole entry, looked up): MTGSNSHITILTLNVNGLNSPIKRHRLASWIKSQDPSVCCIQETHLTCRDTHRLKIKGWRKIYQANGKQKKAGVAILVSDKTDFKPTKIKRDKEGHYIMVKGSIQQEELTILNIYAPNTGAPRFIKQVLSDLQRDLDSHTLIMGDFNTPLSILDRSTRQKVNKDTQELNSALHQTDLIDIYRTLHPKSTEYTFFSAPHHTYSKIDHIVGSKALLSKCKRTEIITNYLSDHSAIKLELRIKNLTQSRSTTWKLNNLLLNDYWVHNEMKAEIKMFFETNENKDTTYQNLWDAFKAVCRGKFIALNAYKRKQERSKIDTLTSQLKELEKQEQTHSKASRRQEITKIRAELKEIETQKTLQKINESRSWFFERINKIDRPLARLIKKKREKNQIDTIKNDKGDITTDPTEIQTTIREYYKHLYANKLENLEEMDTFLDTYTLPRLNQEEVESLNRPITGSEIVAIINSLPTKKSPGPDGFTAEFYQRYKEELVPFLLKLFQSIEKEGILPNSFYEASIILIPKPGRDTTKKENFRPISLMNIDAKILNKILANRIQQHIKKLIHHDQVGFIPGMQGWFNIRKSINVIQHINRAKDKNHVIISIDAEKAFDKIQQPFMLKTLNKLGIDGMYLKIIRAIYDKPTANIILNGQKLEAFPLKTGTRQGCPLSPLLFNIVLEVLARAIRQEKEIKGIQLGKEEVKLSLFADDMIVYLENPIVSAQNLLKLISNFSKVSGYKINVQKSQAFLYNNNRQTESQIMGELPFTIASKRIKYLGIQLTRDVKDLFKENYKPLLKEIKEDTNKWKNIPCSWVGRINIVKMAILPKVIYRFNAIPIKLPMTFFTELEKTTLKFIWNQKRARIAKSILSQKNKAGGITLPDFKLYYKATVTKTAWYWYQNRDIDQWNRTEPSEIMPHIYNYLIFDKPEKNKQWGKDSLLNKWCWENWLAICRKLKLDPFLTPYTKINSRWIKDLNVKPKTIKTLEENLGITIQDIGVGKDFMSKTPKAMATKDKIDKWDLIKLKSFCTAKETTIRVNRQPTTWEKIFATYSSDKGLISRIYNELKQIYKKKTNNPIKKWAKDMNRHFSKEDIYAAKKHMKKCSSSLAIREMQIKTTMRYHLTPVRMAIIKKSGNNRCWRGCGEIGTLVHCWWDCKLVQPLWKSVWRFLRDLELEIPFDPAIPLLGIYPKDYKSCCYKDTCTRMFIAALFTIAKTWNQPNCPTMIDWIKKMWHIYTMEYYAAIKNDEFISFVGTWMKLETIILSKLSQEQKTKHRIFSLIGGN
As to the kind of experiment: Transient artificial-intron Cis LINE1 reporter assay. The following applies: HEK 293 cells, FLuc/RLuc ratio, read-out: IC50 for inhibition of FLuc luminescence. Format: cell-based. On the procedure:
Intron-disrupted Firefly luciferase (FLuc) expression cassettes were generated as described by Xie, Y. et al. “Characterization of L1 retrotransposition with high-throughput dual-luciferase assays,” Nucleic Acid Res. (2011) Vol. 39, No. 3, e16. In addition, the plasmid contained an intact Renilla luciferase (RLuc) expression cassette on the vector backbone, in order to normalize transfection efficiency and measure potential cell toxicity.
HEK 293 cells were seeded in 96-well plates at 1,000 cells/well in 55 μL and grown for 24 hours. Cells were transfected with FuGeneHD (Promega) following the manufacturer's protocol. Each well received 0.133 ng plasmid, 0.4 μL FuGeneHD reagent, and 4.5 μL GlutaMAX-I-supplemented Opti-MEM I reduced-serum medium (Invitrogen). Cells were simultaneously treated with test compound serially diluted starting at 100 μM in a 3-fold dilution dose response.
Luminescence was measured using the Dual-Glo Luciferase Assay System (Promega) following the manufacturer's instructions. The ratio between FLuc and RLuc gene expression was used to report LINE1 activity.

Broadly, the IC50 is the point on the concentration scale where inhibition reaches its midpoint. Lower therefore signals greater potency in that assay. For orientation: pIC50 means the negative decadic logarithm of the IC50, by convention in mol/L. Consider `C#C[C@]1(CO)O[C@@H](n2cnc3c(N)nc(F)nc32)C[C@@H]1O` [Islatravir, (2R,3S,5R)-5-(6-amino-2-fluoro-9H-purin-9-yl)-2-ethynyl-2-(hydroxymethyl)tetrahydrofuran-3-ol], for which the IC50 with FaDu cells lay in the range of 10 to 30 µM. Further, in assay [1], the “change in ISG response” value is “showed the change in ISG response”. Also, the pIC50 in assay [2] was below 4.70; in assay [3], 7.70.
